Experimental data from US8003655B2, “Substituted sulphoximines as TIE2 inhibitors and salts thereof, pharmaceutical compositions comprising same, methods of preparing same and uses of same” (Bayer Schering Pharma AG, priority 2006, dated 2011).

Experiments:
[1] = biological target: T1, Tie2 (Homo sapiens, UniProt Q02763); test: Tie2-Kinase HTRF-Assay without kinase preactivation (assay 2); format: biochemical; settings: 10 μM ATP, pIC50 = −log IC50 in molar concentration, read-out: Tie 2 activity (assay 2)
T1 construct: A recombinant fusion protein of GST and the intracellular domains of Tie2; GST; made in house; host or cells: insect cells (Hi-5)
T1 sequence (Q02763 770-1124 limits assumed): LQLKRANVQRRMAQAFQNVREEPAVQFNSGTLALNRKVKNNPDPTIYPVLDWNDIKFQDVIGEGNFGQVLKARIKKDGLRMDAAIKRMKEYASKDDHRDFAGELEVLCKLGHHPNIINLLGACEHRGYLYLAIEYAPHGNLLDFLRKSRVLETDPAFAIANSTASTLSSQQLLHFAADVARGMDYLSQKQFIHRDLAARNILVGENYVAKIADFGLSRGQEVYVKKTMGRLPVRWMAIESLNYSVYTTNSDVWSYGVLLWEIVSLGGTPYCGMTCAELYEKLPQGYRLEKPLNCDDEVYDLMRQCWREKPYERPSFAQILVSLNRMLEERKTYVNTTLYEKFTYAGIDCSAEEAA
Excerpt: Tie2-inhibitory activity of compounds of the present invention was quantified employing two Tie2 HTRF assay as described in the following paragraphs.
A recombinant fusion protein of GST and the intracellular domains of Tie2, expressed in insect cells (Hi-5) and purified by Glutathion-Sepharose affinity chromatography was used as kinase. Alternatively, commercially available GST-Tie2-fusion protein (Upstate Biotechnology, Dundee, Scotland) can be used as substrate for the kinase reaction the biotinylated peptide biotin-Ahx-EPKDDAYPLYSDFG (C-terminus in amid form) was used which can be purchased e.g. from the company Biosynthan GmbH (Berlin-Buch, Germany). Detection of phosphorylated product is achieved specifically by a trimeric detection complex consisting of the phosphorylated substrate, streptavidin-XLent (SA-XLent) which binds to biotin, and Europium Cryptate-labeled anti-phosphotyrosine antibody PT66 which binds to phosphorylated tyrosine.
Tie2 (3.5 ng/measurement point) was incubated for 60 min at 22° C. in the presence of 10 μM adenosine-tri-phosphate (ATP) and 1 μM substrate peptide (biotin-Ahx-EPKDDAYPLYSDFG-NH2) with different concentrations of test compounds (0 μM and concentrations in the range 0.001-20 μM) in 5 μl assay buffer [50 mM Hepes/NaOH pH 7, 10 mM MgCl2, 0.5 mM MnCl2, 1.0 mM dithiothreitol, 0.01% NP40, protease inhibitor mixture (“Complete w/o EDTA” from Roche, 1 tablet per 2.5 ml), 1% (v/v) dimethylsulfoxide]. The reaction was stopped by the addition of 5 μl of an aqueous buffer (25 mM Hepes/NaOH pH 7.5, 0.28% (w/v) bovine serum albumin) containing EDTA (90 mM) and the HTRF (Homogeneous Time Resolved Fluorescence) detection reagents streptavidine-XLent (0.2 μM, from Cis Biointernational, Marcoule, France) and PT66-Eu-Chelate (0.3 ng/μl; a europium-chelate labelled anti-phospho-tyrosine antibody from Perkin Elmer).
The resulting mixture was incubated 1 h at 22° C. to allow the binding of the biotinylated phosphorylated peptide to the streptavidine-XLent and the PT66-Eu-Chelate. Subsequently the amount of phosphorylated substrate peptide was evaluated by measurement of the resonance energy transfer from the PT66-Eu-Chelate to the streptavidine-XLent. Therefore, the fluorescence emissions at 620 nm and 665 nm after excitation at 350 nm was measured in a HTRF reader, e.g. a Rubystar (BMG Labtechnologies, Offenburg, Germany) or a Viewlux (Perkin-Elmer). The ratio of the emissions at 665 nm and at […] was taken as the measure for the amount of phosphorylated substrate peptide. The data were normalised (enzyme reaction without inhibitor=0% inhibition, all other assay components but no enzyme=100% inhibition) and IC50 values were calculated by a 4 parameter fit using an inhouse software.

[2] = biological target: T2, CDK2/CycE (Homo sapiens, UniProt P24941); test: CDK2 HTRF Assay (assay 4); format: biochemical; settings: 10 μM ATP, pIC50 = −log IC50 in molar concentration
T2 construct: GST; purchased ProQinase GmbH (Freiburg, Germany); host or cells: insect cells (Sf9)
Excerpt: CDK2/CycE-inhibitory activity of compounds of the present invention was quantified employing the CDK2/CycE HTRF assay as described in the following paragraphs.
Recombinant fusion proteins of GST and human CDK2 and of GST and human CycE, expressed in insect cells (Sf9) and purified by Glutathion-Sepharose affinity chromatography, were purchase from ProQinase GmbH (Freiburg, Germany). As substrate for the kinase reaction biotinylated peptide biotin-Ttds-YISPLKSPYKISEG (C-terminus in amid form) was used which can be purchased e.g. form the company JERINI peptide technologies (Berlin, Germany).
CDK2/CycE was incubated for 60 min at 22° C. in the presence of different concentrations of test compounds in 5 μl assay buffer [50 mM Tris/HCl pH 8.0, 10 mM MgCl2, 1.0 mM dithiothreitol, 0.1 mM sodium ortho-vanadate, 10 μM adenosine-tri-phosphate (ATP), 0.75 μM substrate, 0.01% (v/v) Nonidet-P40 (Sigma), 1% (v/v) dimethylsulfoxide]. The concentration of CDK2/CycE was adjusted depending of the activity of the enzyme lot and was chosen appropriate to have the assay in the linear range, typical concentrations were in the range of 1 ng/ml. The reaction was stopped by the addition of 5 μl of a solution of HTRF detection reagents (0.2 μM streptavidine-XLent and 3.4 nM Phospho-(Ser) CDKs Substrate Antibody [product #2324B, Cell Signalling Technology, Danvers, Mass., USA} and 4 nM Prot-A-EuK [Protein A labeled with Europium Cryptate from Cis biointernational, France, product no. 61PRAKLB]) in an aqueous EDTA-solution (100 mM EDTA, 800 mM KF, 0.2% (w/v) bovine serum albumin in 100 mM HEPES/NaOH pH 7.0).

Structure (SMILES) | IC50 [1] [nM] | IC50 [2] [nM]
CCOC(=O)N=S(C)(=O)c1ccc(Nc2ncc(-c3ccc(NC(=O)C4(c5ccccc5)CC4)cc3)c(N[C@H](C)CO)n2)cc1 (mixture of isomers) [Example 1, N-{4-[2-({4-[(RS)-N-(Ethoxycarbonyl)-S-methylsulfonimidoyl]phenyl}amino)-4-{[(R)-2-hydroxy-1-methylethyl]amino}-pyrimidin-5-yl]phenyl}-1-phenylcyclopropanecarboxamide] | 100 to 1000 | > 10000
CCOC(=O)N=S(C)(=O)c1ccc(Nc2ncc(-c3ccc(NC(=O)Nc4ccccc4)cc3)c(N[C@H](C)CO)n2)cc1 (mixture of isomers) [Example 6, 1-{4-[2-({4-[(RS)-N-(Ethoxycarbonyl)-S-methylsulfonimidoyl]phenyl}amino)-4-{[(R)-2-hydroxy-1-methylethyl]amino}-pyrimidin-5-yl]-phenyl}-3-[phenyl]urea] | 100 to 1000 | > 10000
CCOC(=O)N=S(C)(=O)c1cccc(Nc2ncc(-c3ccc(NC(=O)Nc4cccc(C(F)(F)F)c4)cc3)c(N[C@H](C)CO)n2)c1 (mixture of isomers) [Example 10, 1-{4-[2-({3-[(RS)-N-(Ethoxycarbonyl)-S-methylsulfonimidoyl]phenyl}amino)-4-{[(R)-2-hydroxy-1-methylethyl]amino}-pyrimidin-5-yl]-phenyl}-3-[3-(trifluoromethyl)-phenyl]urea] | 100 to 1000 | > 10000
CC(C)NC(=O)N=S(C)(=O)c1cccc(Nc2ncc(-c3ccc(NC(=O)Nc4cccc(C(F)(F)F)c4)cc3)c(N[C@H](C)CO)n2)c1 (mixture of isomers) [Example 14, 1-{4-[4-{[(R)-2-hydroxy-1-methylethyl]amino}-2-({3-[(RS)-N-(isopropylcarbamoyl) -S-methylsulfonimidoyl]phenyl}amino)-pyrimidin-5-yl]phenyl}-3-[3-(trifluoromethyl)-phenyl]urea] | 100 to 1000 | > 10000
C[C@H](CO)Nc1nc(Nc2ccc(S(C)(=N)=O)cc2)ncc1-c1ccc(NS(=O)(=O)c2cccc(Cl)c2Cl)cc1 (mixture of isomers) [Example 24] | 100 to 1000 | > 10000
CSc1nc(Nc2cccc(S(C)(=N)=O)c2)ncc1-c1ccc(NC(=O)Nc2cc(C(F)(F)F)ccc2F)c(F)c1 (racemic) [Example 44, 1-{2-Fluoro-4-[2-{[3-(RS)-(S-methylsulfonimidoyl)phenyl]amino}-4-(methylthio)-pyrimidin-5-yl]phenyl}-3-[2-fluoro-5-(trifluoromethyl)-phenyl]urea] | < 100 | > 10000

The next lines start with the values.

IC50 [1] [nM] | IC50 [2] [nM] | Structure (SMILES)
< 100 | > 10000 | C[C@H](CO)Nc1nc(Nc2cccc(S(C)(=N)=O)c2)ncc1-c1ccc(NC(=O)Nc2cccc(C(F)(F)F)c2)cc1 (mixture of isomers) [Example 39, 1-[4-(4-{[(R)-2-Hydroxy-1-methylethyl]amino}-2-{[3-(RS)-(S-methylsulfonimidoyl)phenyl]amino}-pyrimidin-5-yl)phenyl]-3-[3-(trifluoromethyl)-phenyl]urea]
< 100 | > 10000 | CCOC(=O)N=S(C)(=O)c1cccc(Nc2ncc(-c3ccc(NC(=O)Nc4cc(C(F)(F)F)ccc4F)c(F)c3)c(SC)n2)c1 (racemic) [Example 17, 1-{4-[2-({3-[(RS)-N-(Ethoxycarbonyl)-S-methylsulfonimidoyl]phenyl}amino)-4-(methylsulfanyl)pyrimidin-5-yl]-2-fluorophenyl}-3-[2-fluoro-5-(trifluoromethyl)phenyl]urea]
< 100 | > 10000 | CCOC(=O)N=S(C)(=O)c1cccc(Nc2ncc(-c3ccc(NC(=O)Nc4cc(C(F)(F)F)ccc4F)c(F)c3)c(NCCN3CCOCC3)n2)c1 (racemic) [Example 29, 1-{4-[2-({3-[(RS)-N-(Ethoxycarbonyl)-S-methylsulfonimidoyl]phenyl}amino)-4-{[2-(morpholin-4-yl)ethyl]amino}pyri-midin-5-yl]-2-fluorophenyl}-3-[2-fluoro-5-(trifluoromethyl)-phenyl]urea]
